The test system of data set [1] is A549, HOP62, and HOP92 lung carcinoma cell lines. As to the kind of experiment: Cytotoxicity/cell viability of lung carcinoma cells (MIT assay). Format: cell-based, human. To be noted: 3-day period.
Data set [2] can be described thus: Pharmacokinetics of PAR1 pepducins in CF-1 mice, plasma LC/MS/MS. Format: in vivo, mouse. The arrangement: Peak plasma level: unit not given here. The conditions noted are these: 10 mg/kg s.c. How it is done: FIG. 14 illustrates pharmacokinetics of PAR1 pepducins. (A): CF-1 mice were injected subcutaneously with P1pal-7 (3 mg/kg, open circles), P1pal-7 (10 mg/kg, closed circles), P1pal-10S (10 mg/kg, gray circles), or P1pal-i1-11 (10 mg/kg, open squares) in 20% dimethyl sulfoxide and blood was collected at indicated time points (n=3). Pepducin levels in plasma were quantified with LC/MS/MS. (B): Daily (D1 to D6) plasma levels of P1pal-7 after subcutaneous injection of 10 mg/kg P1pal-7 were measured at 1 hour (open circles) and 24 hours (open squares).
Pharmacokinetics of plasma levels of P1pal-7, P1pal-10S, and P1pal-i1-11 at 30 minutes, and at 1, 2, 4, 6, 8, and 16 hours was measured by LC/MS/MS to determine steady-state pepducin drug levels and the rate of elimination from mice. Subcutaneous injections of P1pal-7 (3 mg/kg or 10 mg/kg) into wild-type CF-1 mice (25 to 30 g) was followed by blood collection at various time points from the vena cava. […] Residual P1pal-7 levels were 10 nmol/L at the 16-hour time point. After the 4-hour plateau, the elimination rate was linear from 4 to 16 hours. The peak plasma level of 3 mg/kg P1pal-7 reached 0.6 μmol/L at 2 hours and elimination was linear between 2 hours and 16 hours. P1pal-10S (10 mg/kg) gave similar peak plasma level of 1.0 μmol/L as P1pal-7 (10 mg/kg) at 1 hour.
Lastly, the peak plasma level of P1pal-7 (10 mg/kg) was measured before and 1 hour after once-daily subcutaneous injection over 6 days to determine whether the peak plasma levels were consistent on daily administration.

The target of data set [3] is T1, PAR2 (Homo sapiens, UniProt P55085). Put plainly: PLC-b inositol phosphate formation, PAR2 (SLIGRL). The data set is classed as cell-based. Set-up: expressed in transfected cells; host or cells: COS7. How it is done: (§1) (A) PAR2 antagonist pepducins P2pal-18S and P2pal-14GQ inhibit calcium flux induced by PAR2 (SLIGRL) (SEQ ID NO:4) but not PAR1 (TFLLRN) (SEQ ID NO:2) agonists. SW620 cells were stably transfected with PAR1 and pretreated for 1 min with various concentrations of P2pal-18S or P2pal-14GQ and then stimulated with 30 μM PAR agonist. […] Cells were stimulated with 1 μM TFLLRN (SEQ ID NO:2), 1 μM SLIGRL (SEQ ID NO:4) or 100 μM AYPGKF (SEQ ID NO:5) and [^3H]-InsP formation measured over 30 min. (C) SW620 cells were treated with the indicated concentrations of P2pal-18S or P2pal-14GQ in the upper well of an 8-μm pore Boyden chamber and allowed to migrate for 18 h towards 10 μM of the PAR2 specific agonist SLIGRL in the lower chamber. The migration to RPMI/0.1% FBS represents random migration. (D) Migration of HEK cells transiently transfected with PAR2 (wild-type, WT), or PAR2-R36A/PAR2-RQ toward chemotactic gradients of 30 nM trypsin in the absence or presence of the indicated concentration of P2pal-18S for 18 h in a transwell apparatus ([…]). Data (n=2-4) are mean±SEM. *, P<0.05 and **, P<0.005.
Additionally, we tested whether P2pal-18S inhibited proteolytic cleavage of PAR2 or endocytosis (DeFea K A, et al. (2000) J Cell Biol 148: 1267-81; Roosterman D, et al. (2003) Am J Physiol Cell Physiol 284: C1319-29; Stalheim L, et al. (2005) Mol Pharmacol 67: 78-87). […]

The target in data set [4] is T1, PAR2. As to the kind of experiment: Trypsin cleavage of PAR2. The data set is classed as cell-based. The text has this: Additionally, we tested whether P2pal-18S inhibited proteolytic cleavage of PAR2 or endocytosis (DeFea K A, et al. (2000) J Cell Biol 148: 1267-81; Roosterman D, et al. (2003) Am J Physiol Cell Physiol 284: C1319-29; Stalheim L, et al. (2005) Mol Pharmacol 67: 78-87). […] Therefore, the P2pal-18S i3 loop pepducin can inhibit PAR2-dependent calcium signaling, PLC-b inositol phosphate formation, and cell migration, but not proteolytic cleavage or endocytosis.

The target of data set [5] is PAR2 (Mus musculus, UniProt P55086). Put plainly: λ-carrageenan/kaolin-induced mouse paw edema and inflammation (PAR2 pepducin). Set-up: from tissue; host or cells: living C57BL/6 mice, hindpaw. The data set is classed as in vivo. The conditions noted are these: 10 mg/kg s.c. A general note: Carrageenan injected into the paw causes an acute inflammation.
The target of data set [6] is T2, PAR1 (Homo sapiens, UniProt P25116).
T2 sequence (P25116 22-425): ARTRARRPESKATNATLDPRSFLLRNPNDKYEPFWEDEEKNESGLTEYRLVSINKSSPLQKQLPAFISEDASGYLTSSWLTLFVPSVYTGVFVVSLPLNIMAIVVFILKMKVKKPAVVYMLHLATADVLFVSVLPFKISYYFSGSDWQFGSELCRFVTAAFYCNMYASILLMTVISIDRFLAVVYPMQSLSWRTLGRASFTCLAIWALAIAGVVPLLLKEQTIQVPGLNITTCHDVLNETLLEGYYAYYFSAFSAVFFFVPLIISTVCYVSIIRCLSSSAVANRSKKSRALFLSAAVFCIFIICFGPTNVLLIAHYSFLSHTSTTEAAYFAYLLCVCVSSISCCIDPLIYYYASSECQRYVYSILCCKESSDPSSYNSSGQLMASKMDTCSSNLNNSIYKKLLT
Put plainly: Human neutrophil chemotaxis to TFLLRN. Format: cell-based. The arrangement: endogenous in cells. The conditions noted are these: 10 μM TFLLRN. How it is done:
(A) Human neutrophils (n=4 normal volunteers) were analyzed for surface expression of human PAR1, PAR2, and PAR4 by flow cytometry with PAR-specific antibodies. […] Chemotaxis index is the ratio of directed versus random migration over 30 min through a 5-μm pore filter.
P2pal-18S had no effect on PAR1-dependent platelet aggregation (FIG. 5A). Neither P2pal-18S nor P2pal-14GQ caused membrane disruption or apoptosis as assessed by propidium iodide uptake in SW620 cells with up to 30 μM concentrations of pepducin (FIG. 5B).

Data set [7] deals with T2, PAR1. As to the kind of experiment: Calcium flux in SW620 cells stably transfected with PAR1, TFLLRN stimulus. To be noted: 30 μM TFLLRN. Format: cell-based. The protocol: as §1

Peptide text beside a SMILES is read from it. * marks the point of attachment. Palmitoyl = CCCCCCCCCCCCCCCC(=O)*

Here are results for two compounds from patent publication US10913781B2, “Pepducin design and use” (Tufts Medical Center, Inc., priority 2011, dated 2021).

Chain of PAR2 (Mus musculus, UniProt P55086) (P55086 26-399): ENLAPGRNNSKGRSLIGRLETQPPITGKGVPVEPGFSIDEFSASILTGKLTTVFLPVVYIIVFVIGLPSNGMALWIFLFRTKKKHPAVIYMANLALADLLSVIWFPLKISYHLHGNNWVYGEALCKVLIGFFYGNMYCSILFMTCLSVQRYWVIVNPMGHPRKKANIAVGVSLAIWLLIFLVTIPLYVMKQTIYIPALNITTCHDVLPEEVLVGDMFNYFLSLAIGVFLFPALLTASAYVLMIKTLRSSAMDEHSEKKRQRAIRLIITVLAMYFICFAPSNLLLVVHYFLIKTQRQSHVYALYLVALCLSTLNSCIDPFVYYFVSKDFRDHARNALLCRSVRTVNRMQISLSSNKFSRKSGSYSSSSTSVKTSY
T1 sequence (P55085 26-397): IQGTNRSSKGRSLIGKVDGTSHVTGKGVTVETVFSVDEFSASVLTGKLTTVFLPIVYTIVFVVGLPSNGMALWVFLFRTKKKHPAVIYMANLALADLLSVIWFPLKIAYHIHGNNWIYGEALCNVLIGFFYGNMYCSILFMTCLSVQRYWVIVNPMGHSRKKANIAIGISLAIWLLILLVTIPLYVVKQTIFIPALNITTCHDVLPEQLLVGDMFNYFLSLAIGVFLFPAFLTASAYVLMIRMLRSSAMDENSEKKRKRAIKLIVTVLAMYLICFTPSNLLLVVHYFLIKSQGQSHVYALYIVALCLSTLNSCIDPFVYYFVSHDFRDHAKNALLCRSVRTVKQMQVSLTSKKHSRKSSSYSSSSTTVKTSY

In the case of `CCCCCCCCCCCCCCCC(=O)N[C@H](C(=O)N[C@@H](CC(C)C)C(=O)N[C@@H](CCCCN)C(=O)N[C@@H](CCSC)C(=O)N[C@@H](CCCCN)C(=O)N[C@H](C(=O)N[C@@H](CCCCN)C(=O)N[C@@H](CCCCN)C(=O)N1CCC[C@H]1C(=O)N[C@@H](C)C(=O)N[C@H](C(N)=O)C(C)C)C(C)C)[C@@H](C)CC` [P1pal-i1-11] (Palmitoyl-ILKMKVKKPAV-NH2), in data set [1], the “Sensitivity of A549 cells (cytotoxicity)” value is “less sensitive”. Also, the “Clearance / plasma half-life in words” value in data set [2] was “sustained plasma half-life”. This compound yielded a Peak plasma level in data set [2] (between 0.5 and 8 hours) of 5.0.
Take `CCCCCCCCCCCCCCCC(=O)N[C@@H](CCCNC(=N)N)C(=O)N[C@@H](CO)C(=O)N[C@@H](CO)C(=O)N[C@@H](C)C(=O)N[C@@H](CCSC)C(=O)N[C@@H](CC(=O)O)C(=O)N[C@@H](CCC(=O)O)C(=O)N[C@@H](CC(N)=O)C(=O)N[C@@H](CO)C(=O)N[C@@H](CCC(=O)O)C(=O)N[C@@H](CCCCN)C(=O)N[C@@H](CCCCN)C(=O)N[C@@H](CCCNC(=N)N)C(=O)N[C@@H](CCCCN)C(=O)N[C@@H](CO)C(=O)N[C@@H](C)C(=O)N[C@H](C(=O)N[C@@H](CCCCN)C(N)=O)[C@@H](C)CC` [P2pal-18S]: in data set [3], the “Inhibition of PAR2-dependent PLC-b inositol phosphate formation” value was “can inhibit”. The “Effect on trypsin cleavage of PAR2” value in data set [4] is “no effect”. For the same compound, in data set [5] (7 h after λ-carrageenan/kaolin, WT mice), the “Effect on increase in myeloperoxidase activity in hindpaw tissue” value is listed as “blocked”. Also, the “Protection against leukocytic infiltrates in the dermis of the footpads” value in data set [5] (7 h post λ-carrageenan/kaolin) is given as 60%. In data set [5] (PAR2-deficient mice), the “Effect on swelling in PAR2-deficient mice” value was “did not further reduce swelling”. Also, the “Decrease in λ-carrageenan/kaolin-induced edema” value in data set [5] (WT C57BL/6 mice) is 50%. Besides, the “Effect on paw edema in mast cell-deficient mice” value in data set [5] (mast cell-deficient mice, λ-carrageenan/kaolin) is recorded as “could not be further reduced”. The “Antagonist activity, neutrophil chemotaxis, PAR1” value in data set [6] was “no antagonist activity”. In addition, the “Inhibition of PAR1 calcium flux” value in data set [7] is given as “did not inhibit”.
